The species entered for assay [1] is Homo sapiens. Put plainly: compound (at 25 micro g/ml) was tested for antithrombotic activity. Format: functional.
For assay [2], the species on record is Homo sapiens. Put plainly: Compound (at 25 micro g/ml) was tested for antithrombotic activity in presence of heparin. Format: functional.

Structures are written as SMILES.

On to `CO[C@H]1O[C@H](COS(=O)(=O)O)[C@@H](O[C@@H]2O[C@H](C(=O)O)[C@@H](OC)[C@H](O)[C@H]2O)[C@H](OS(=O)(=O)O)[C@H]1NS(=O)(=O)O` [HEPARIN/DIAZENIUMDIOLATE CONJUGATE], for which the Thrombin time in the assay filed under Homo sapiens [1] is listed as 92 s.
Take `CO[C@H]1O[C@H](CN2CCNCC2)[C@@H](O[C@@H]2O[C@H](C(=O)O)[C@@H](OC)[C@H](O)[C@H]2O)[C@H](OS(=O)(=O)O)[C@H]1NS(=O)(=O)O` [HEPARIN/DIAZENIUMDIOLATE CONJUGATE]: the Thrombin time in the assay filed under Homo sapiens [2] is reported as 31 s.
The same measure, in the same setting: the same measure for `COCO/N=[N+](\[O-])N1CCN(C[C@H]2O[C@H](OC)[C@H](NS(=O)(=O)O)[C@@H](OS(=O)(=O)O)[C@@H]2O[C@@H]2O[C@H](C(=O)O)[C@@H](OC)[C@H](O)[C@H]2O)CC1` [HEPARIN/DIAZENIUMDIOLATE CONJUGATE]: 80 s.
